Test results from publication PMC6946680, “Modulation of brain cation-Cl^− cotransport via the SPAK kinase inhibitor ZT-1a” (Nature Communications, 2020).
Where “and” joins values, the source holds several entries; their conditions need not be identical. Equal values may be shown once.

Experiments:
humans = details: cited from earlier work
KCC3 pThr1048 = assay: Immunoblot of KCC site 2 phosphorylation (KCC3 Thr1048) in HEK-293 cells transfected with FLAG-KCC3; type: cell-based, human; details: Fig S4b
KCC3 = assay: 86Rb+ uptake assay for KCC3 activity in HEK-293 cells; type: cell-based, human; parameters: key to 86Rb+ uptake: 86Rb+ uptake CPM normalized per mg protein (10-min uptake); details: for 86Rb+ uptake: replicates
Protocol: (§1) ^86Rb^+ flux assays have been utilized extensively as a reliable measurement of cation chloride cotransporter activity[51]–[54].
Thirty-six hours post transfection, cells were exposed for 30 min to either control isotonic conditions or hypotonic low [Cl^−] conditions (to activate the SPAK/OSR1 pathway), and then treated for an additional 30 min in the same conditions with the indicated ZT-1a concentrations in the presence of 1 mM ouabain and 0.1 mM bumetanide. Ten-minute ^86Rb^+ uptake values were quantified by scintillation counting, normalized per mg protein for each condition, and plotted for both isotonic and hypotonic conditions. ***p < 0.001; **p < 0.01; *p < 0.05; ns—nonsignificant [by one-way ANOVA with post hoc testing (n = 6, error bars represent the mean ± SEM)]. b ^86Rb^+ uptake assays in the presence of ZT-1a measure transport activity of NKCC1. […] Thirty-six hours post transfection, cells were exposed for 30 min to either control isotonic conditions or hypotonic low [Cl^−] conditions (to activate the SPAK/OSR1 pathway), and then treated in the same conditions for an additional 30 min with 10 µM ZT-1a or 0.1 mM bumetanide (Bum) in the presence of 1 mM ouabain (Na^+/K^+-ATPase inhibitor). ^86Rb^+ uptake was allowed to proceed for 10 min and was then quantified by scintillation counting. ^86Rb^+ uptake CPMs were normalized per mg protein and plotted for both isotonic and hypotonic conditions. […] Thirty-six hours post transfection, cells were exposed for 30 min to either control isotonic conditions or hypotonic low [Cl^−] conditions (to activate the SPAK/OSR1 pathway), and then treated for an additional 30 min in the same conditions with the indicated ZT-1a concentrations in the presence of 1 mM ouabain. Ten-minute ^86Rb^+ uptake values were quantified by scintillation counting, normalized per mg protein for each condition, and plotted for both isotonic and hypotonic conditions. ***p < 0.001; **p < 0.01; *p < 0.05; ns—nonsignificant [by one-way ANOVA with post hoc testing (n = 6, error bars represent the mean ± SEM)].
This stimulating medium was then removed and replaced with isotonic medium containing inhibitors plus 2 µCi/ml ^86Rb^+. After incubation for 10 min at 37 °C, cells were rapidly washed three times with the respective ice-cold nonradioactive medium. Washed cells were lysed in 300 µl of ice-cold lysis buffer and ^86Rb^+ uptake was quantitated by liquid scintillation counting (PerkinElmer).

[1] = system: KCC3 Thr991Ala/Thr1048Ala; assay: 86Rb+ uptake assay for KCC3 double mutant in HEK-293 cells; type: cell-based, human; details: for 86Rb+ uptake: Fig 3a, T991A/T1048A + 1a (10 µM), replicates
Protocol: as §1
Thirty-six hours post transfection, cells were exposed for 30 min to either control isotonic conditions or hypotonic low [Cl^−] conditions (to activate the SPAK/OSR1 pathway), and then treated for an additional 30 min in the same conditions with the indicated ZT-1a concentrations in the presence of 1 mM ouabain and 0.1 mM bumetanide. Ten-minute ^86Rb^+ uptake values were quantified by scintillation counting, normalized per mg protein for each condition, and plotted for both isotonic and hypotonic conditions. ***p < 0.001; **p < 0.01; *p < 0.05; ns—nonsignificant [by one-way ANOVA with post hoc testing (n = 6, error bars represent the mean ± SEM)]. b ^86Rb^+ uptake assays in the presence of ZT-1a measure transport activity of NKCC1. […] Thirty-six hours post transfection, cells were exposed for 30 min to either control isotonic conditions or hypotonic low [Cl^−] conditions (to activate the SPAK/OSR1 pathway), and then treated in the same conditions for an additional 30 min with 10 µM ZT-1a or 0.1 mM bumetanide (Bum) in the presence of 1 mM ouabain (Na^+/K^+-ATPase inhibitor). ^86Rb^+ uptake was allowed to proceed for 10 min and was then quantified by scintillation counting. ^86Rb^+ uptake CPMs were normalized per mg protein and plotted for both isotonic and hypotonic conditions. […] Ten-minute ^86Rb^+ uptake values were quantified by scintillation counting, normalized per mg protein for each condition, and plotted for both isotonic and hypotonic conditions. ***p < 0.001; **p < 0.01; *p < 0.05; ns—nonsignificant [by one-way ANOVA with post hoc testing (n = 6, error bars represent the mean ± SEM)].
This stimulating medium was then removed and replaced with isotonic medium containing inhibitors plus 2 µCi/ml ^86Rb^+. […] Washed cells were lysed in 300 µl of ice-cold lysis buffer and ^86Rb^+ uptake was quantitated by liquid scintillation counting (PerkinElmer).

NKCC1 pThr203/207/212 = assay: Choroid plexus NKCC1 immunoblot in rat IVH model; type: in vivo
[2] = system: mouse model of ischemic stroke (tMCAO); assay: Corner test after tMCAO; type: in vivo; details: for Corner test (Unilateral turns): Fig 7c, individual mice #1-#7
pJNK = assay: Immunoblot of phospho-JNK in ischemic mouse brain; type: in vivo
From the text: Cytosol and crude membrane protein
Expressions of Na+-K+ ATPase
respectively. d Densitometric analyses of immunoblots.

tSPAK tOSR1 = assay: Immunoblot of total SPAK/OSR1 in ischemic mouse brain membrane and cytosol fractions; type: in vivo; details: Membrane, single samples
From the text: Supplement 41467_2019_13851_MOESM4_ESM.zip/Source Data.xlsx, sheet "Fig S11b and c" | column: tSPAK tOSR1/Na K pump (fold veh-CL)

[3] = parameters: method as in Reviewer #3; details: as stated by Reviewer #3 in the peer-review file; ref Reviewer #3; cited from earlier work
human fibroblast cells = assay: Cell volume measurement (calcein-AM) under hyperosmotic stress, human fibroblasts; details: hypertonic 515 mOsm; BMT or ZT-1a

## Cc1cc(C(C#N)c2ccc(Cl)cc2)c(Cl)cc1NC(=O)c1cc(I)cc(I)c1O (centres unmarked) [Closantel, reference compound]
humans
  toxicity contraindicating use in humans: retinal toxicity

## Cc1cc(C(C#N)c2ccc(Cl)cc2)c(Cl)cc1NC(=O)c1cc(Cl)ccc1O (centres unmarked) [ZT-1a, 5-chloro-N-(5-chloro-4-((4-chlorophenyl)(cyano)methyl)-2-methylphenyl)-2-hydroxybenzamide]
KCC3 pThr1048; ZT-1a 0.3 uM
  KCC3 pThr1048 / KCC3: 0.52 and 0.601 and 0.501 and 0.473
KCC3 pThr1048; ZT-1a 3 uM
  KCC3 pThr1048 / KCC3: 0.31 and 0.301 and 0.253 and 0.205
KCC3; 86Rb+ flux, 10 µM ZT-1a, HEK-293
  activation of WT KCC3 (KCC) activity: > 10.6 fold and > 10 fold
KCC3; Fig 3a right, KCC3 wt, ZT-1a 1 uM, Hypotonic low Cl-
  86Rb+ uptake: 1990.9 and 1707.8 and 2071.9 and 2501.3 and 2188.7 and 2073.1
KCC3; Fig 3a right, KCC3 wt, ZT-1a 1 uM, Isotonic control
  86Rb+ uptake: 3241.3 and 3419.1 and 2873.4 and 3612.8 and 2913.5 and 2519.3
KCC3; Fig 3a right, KCC3 wt, ZT-1a 3 uM, Hypotonic low Cl-
  86Rb+ uptake: 4012.2 and 3271.9 and 4514.8 and 3888.6 and 3729.3 and 3910.5
KCC3; Fig 3a right, KCC3 wt, ZT-1a 3 uM, Isotonic control
  86Rb+ uptake: 6755.1 and 6519.9 and 7018.4 and 6691.3 and 7512.7 and 6011.7
KCC3; Fig 3a right, KCC3 wt, ZT-1a 10 uM, Hypotonic low Cl-
  86Rb+ uptake: 11981.4 and 10921.3 and 12650.2 and 11037.8 and 12144.8 and 9615.1
KCC3; Fig 3a right, KCC3 wt, ZT-1a 10 uM, Isotonic control
  86Rb+ uptake: 17537.1 and 16129.4 and 18002.7 and 19588.5 and 17991.3 and 15002.2
KCC3; Fig 3a, KCC3 wt + 1a (10 µM), Hypotonic low Cl-
  86Rb+ uptake: 12251.1 and 13980.5 and 10874.7 and 11830.4 and 14081.1 and 11229.7
KCC3; Fig 3a, KCC3 wt + 1a (10 µM), Isotonic control
  86Rb+ uptake: 17623.6 and 19014.4 and 18719.8 and 19961.7 and 18001.8 and 17951.6
[1]; 86Rb+ flux, 10 µM ZT-1a
  activity of KCC3 double mutant Thr991Ala/Thr1048Ala: failed to increase activity
[1]; Hypotonic low Cl-
  86Rb+ uptake: 20886.3 and 22005.7 and 21031.7 and 19121.7 and 18316.2 and 19001.7
[1]; Isotonic control
  86Rb+ uptake: 27112.3 and 26091.1 and 31837.7 and 30881.4 and 28673.6 and 29768.2
NKCC1 pThr203/207/212; rat CPe 48 h post IVH + 1a, replicates
  NKCC1 pThr203/207/212 / Actin: 1.03 and 0.7 and 0.5 and 0.9 and 0.81 and 0.55
NKCC1 pThr203/207/212; rat, ICV ZT-1a, 48 h post IVH, n = 3
  reduction of IVH-induced expression of pNKCC1 in CPe: 69 ± 4.3%
[2]; Day 1
  Corner test (Unilateral turns): 9 Unilateral turns (2×) and 10 Unilateral turns and 6 Unilateral turns (4×)
[2]; Day 3
  Corner test (Unilateral turns): 6 Unilateral turns (2×) and 10 Unilateral turns and 7 Unilateral turns (3×) and 5 Unilateral turns
[2]; Day 5
  Corner test (Unilateral turns): 6 Unilateral turns (5×) and 5 Unilateral turns (2×)
[2]; Day 7
  Corner test (Unilateral turns): 6 Unilateral turns (4×) and 5 Unilateral turns (3×)
[2]; Day -1 (baseline)
  Corner test (Unilateral turns): 5 Unilateral turns (5×) and 6 Unilateral turns (2×)
[2]; ZT-1a 5.0 mg/kg, days 1–7 post stroke
  corner test, turn preference/asymmetries: absence of asymmetries by day 7 post stroke
pJNK; Cytosol, CL, Fig S4d
  pJNK/GAPDH (fold veh-CL): 1.00 fold veh-CL and 1.48 fold veh-CL and 0.87 fold veh-CL and 0.76 fold veh-CL
pJNK; Membrane, IL, Fig S4d
  pJNK/Na K pump (fold veh-CL): 2.05 fold veh-CL and 1.64 fold veh-CL and 1.81 fold veh-CL and 1.40 fold veh-CL
pJNK; ZT-1a 5.0 mg/kg
  p-JNK in ischemic brains: no marked inhibition
tSPAK tOSR1
  tSPAK tOSR1/Na K pump (fold veh-CL): 0.93 fold veh-CL and 1.11 fold veh-CL and 1.70 fold veh-CL and 1.17 fold veh-CL and 1.58 fold veh-CL
[3]
  logP: > 6
Human fibroblast cells
  regulatory volume increase (RVI) in human fibroblast cells: absence of RVI
